Test results: patent US20140135359A1, “METHODS OF DESIGNING, PREPARING, AND USING NOVEL PROTONOPHORES” (priority 2012, published 2014)

What was measured:
[1] = system: differentiated C2C12 skeletal muscle cells; experiment: 3H-deoxyglucose uptake in C2C12 myotubes; format: cell-based, murine; settings: 18 h
Method: 2.3 ^3H-deoxyglucose uptake in C2C12 myotubes: Cell culture and the ^3H-deoxyglucose uptake assay were performed as previously described [34B, 35B, 37B]. Briefly, C2C12 murine skeletal myoblasts (American Type Culture Collection; Manassas, Va.) were cultured under standard conditions in 12-well plates. Cells were proliferated to 80% confluence in high-glucose Dulbecco's modified Eagle's medium (DMEM; Wisent; St-Bruno, QC) supplemented with 10% fetal bovine serum (FBS; Wisent), 10% horse serum (HS), and antibiotics. Differentiation into multinucleated myotubes was then promoted with DMEM supplemented with 2% HS and antibiotics. All uptake assays were performed on 7-day differentiated cells, and treatments were timed accordingly. […] DMSO concentration was fixed at 0.1% for all conditions. Cells were routinely inspected for abnormal morphology by phase-contrast microscopy at the conclusion of the treatment period. […] Cells were then washed twice in glucose-free KPB at 37° C. before incubation for exactly 10 min at 37° C. in glucose-free KPB containing 0.5 μCi/ml 2-deoxy-D-[1-^3H]glucose (Amersham Biosciences; Buckinghamshire, UK). Cells were then placed on ice and immediately washed three times with ice-cold KPB. Cells were inspected for monolayer detachment and lysed in 0.1 N NaOH with scraping. […] Three independent experiments of 18 h treatment duration were performed for each of the selected test compounds, with three replicates per condition per experiment. Vehicle-control and 50 μM 2,4-dinitrophenol conditions were included on every plate. Some compounds were also tested at 50 μM under the following conditions: a 15 h treatment with vehicle only followed by a 3 h treatment with the test compound; a 15 h treatment with the test compound followed by a 3 h repeat treatment.
Protocol for ^3H-deoxyglucose uptake assay in C2C12 or other skeletal muscle cells; C2C12 murine skeletal myoblasts (American Type Culture Collection; Manassas, Va.) may be cultured under standard conditions in 12-well plates. Cells may be proliferated to 80% confluence in high-glucose Dulbecco's modified Eagle's medium (DMEM) supplemented with 10% fetal bovine serum (FBS), 10% horse serum (HS), and antibiotics. Differentiation into multinucleated myotubes may be then promoted with DMEM supplemented with 2% HS and antibiotics. All uptake assays may be performed on 7-day differentiated cells, and treatment onset may be timed accordingly. Cells may be treated with reference substances (such as metformin (100 or 400 μM), phenformin (100 μM), or 2,4-dinitrophenol 10-100 μM), compounds described herein, or vehicle (DMSO) in complete differentiation medium. DMSO concentration may be fixed at 0.1% for all conditions. Cells may be routinely inspected for abnormal morphology by phase-contrast microscopy at the conclusion of the treatment period. […] Cells may be then washed twice in glucose-free KPB at 37° C. before incubation for exactly 10 min at 37° C. in glucose-free KPB containing 0.5 μCi/ml 2-deoxy-D-[1-3H]glucose (Amersham Biosciences; Buckinghamshire, UK). Cells may be then placed on ice and immediately washed three times with ice-cold KPB. Cells may be inspected for monolayer detachment and lysed in 0.1 N NaOH with scraping. […] Three or more independent experiments of 18 hours treatment duration may be performed for each test compound, with three or more replicates per condition per experiment. Vehicle-control and 2,4-dinitrophenol conditions may be included on every plate for the purpose of standardizing.

H4IIE hepatocytes = experiment: Lactate dehydrogenase (LDH) release, cellular viability; format: cell-based, murine; settings: 25 μM, 16 h
Method: 2.4 Glucose-6-phosphatase activity in H4IIE hepatocytes: H4IIE murine hepatocytes (American Type Culture Collection) were cultured to confluence in 12-well plates in DMEM supplemented with 10% FBS and antibiotics. […] Effects of test compounds on cellular viability were assessed by measuring the release of lactate dehydrogenase (LDH) into the culture medium at the end of a 16 h treatment using a commercial kit (Cytotoxicity Detection Kit; Roche Diagnostics; Laval, QC) as per the manufacturer's instructions; LDH release was expressed as % of total (medium+lysate) LDH content for each well. […] Glucose-6-phosphatase (G6Pase) activity was assessed by measuring the rate of glucose formation in the presence of a non-limiting amount of glucose-6-phosphate (G6P), as done by others [39B, 40B]. Glucose production was measured with a commercial glucose assay kit (AutoKit Glucose; Wako Diagnostics; Richmond, Va.). […] Absorbance of the supernatant was measured at 505 nm at ambient temperature and glucose concentration was calculated from a standard curve performed in parallel. Control wells without exogenous G6P were included on each plate for each treatment condition and activity measured from these wells was subtracted from activity measured in the presence of exogenous G6P. G6Pase activity calculated in this way was then expressed normalized to protein content on a well-by-well basis. […]

Compound: O=[N+]([O-])c1ccc(O)c([N+](=O)[O-])c1 [2,4-dinitrophenol]
- increase in basal glucose uptake ([1]; 25 μM): 66%
- increase in basal glucose uptake ([1]; 50 μM): 119%
- increase in basal glucose uptake ([1]; 100 μM): 169%
- release of lactate dehydrogenase (H4IIE hepatocytes): comparable to that of vehicle-treated cells
